Experimental data as given in ChEMBL document CHEMBL4406898, “Dual mode of binding of anti cancer drug epirubicin to G-quadruplex [d-(TTAGGGT)]4 containing human telomeric DNA sequence induces thermal stabilization” (Bioorg Med Chem, 2019).

Tests used:
[1] = target: Albumin (Homo sapiens, UniProt P02768); experiment: Binding affinity to human serum albumin assessed as binding constant after 24 hrs by absorption spectroscopy; format: ADME; details: isolated protein
[2] = system: Quadruplex DNA; experiment: Binding affinity to human telomeric 7 G-quadruplex DNA assessed as binding constant Kb1; format: nucleic-acid assay
[3] = system: Quadruplex DNA; experiment: Binding affinity to human telomeric 7 G-quadruplex DNA assessed as binding constant Kb2; format: nucleic-acid assay

Chain of Albumin (P02768 whole entry): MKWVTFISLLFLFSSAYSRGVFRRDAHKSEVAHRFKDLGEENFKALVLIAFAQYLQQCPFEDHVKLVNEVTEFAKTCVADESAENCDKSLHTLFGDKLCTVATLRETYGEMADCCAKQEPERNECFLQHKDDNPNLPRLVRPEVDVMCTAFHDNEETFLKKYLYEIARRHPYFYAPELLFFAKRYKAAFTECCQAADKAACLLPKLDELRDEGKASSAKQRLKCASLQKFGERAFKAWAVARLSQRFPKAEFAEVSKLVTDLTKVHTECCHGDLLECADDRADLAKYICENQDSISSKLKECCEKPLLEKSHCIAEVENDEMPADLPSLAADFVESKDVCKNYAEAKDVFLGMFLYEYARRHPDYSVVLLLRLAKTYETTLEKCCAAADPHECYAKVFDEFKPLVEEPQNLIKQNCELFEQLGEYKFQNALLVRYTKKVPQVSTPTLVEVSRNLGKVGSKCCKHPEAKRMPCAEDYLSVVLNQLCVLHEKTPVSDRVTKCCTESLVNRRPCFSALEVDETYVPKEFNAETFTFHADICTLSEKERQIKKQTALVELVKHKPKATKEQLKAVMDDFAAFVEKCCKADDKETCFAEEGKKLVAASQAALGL

Structure (SMILES): COc1cccc2c1C(=O)c1c(O)c3c(c(O)c1C2=O)C[C@@](O)(C(=O)CO)C[C@@H]3O[C@H]1C[C@H](N)[C@H](O)[C@H](C)O1.Cl [DOXORUBICIN HYDROCHLORIDE]
- Kb [1]: 3 ×10³ /M
- Kb [2]: 1.1 ×10⁶ /M
- Kb [3]: 0.6 ×10⁶ /M
